Assay results reported in PMC10386886, “First-in-class multifunctional TYMS nonclassical antifolate inhibitor with potent in vivo activity that prolongs survival” (JCI Insight, 2023).

Experiments:
[1] = molecular target: T1, purified human TYMS (Homo sapiens, UniProt P04818); assay: Tritium-based TYMS catalytic activity assay; type: biochemical
T1 construct: 6xHis (N); made in house; host or cells: E. coli BL21 (DE3), vector pQE80L-hTYMS
Method: To determine the inhibition of TYMS activity, we utilized a tritium-based TYMS catalytic assay (Figure 1A) to quantify the conversion of dUMP, which is proportional to TYMS activity ([33]). The assay was based on a previously published protocol ([33]) and modified to determine the amount of purified human TYMS (hTYMS) to be used in the conversion of dUMP to dTMP. […]
Tritium based TYMS catalytic activity assay
The catalytic activity of TYMS was determined by measuring the release of [3H] from [5-3H]dUMP (ViTrax, Cat # VT122) resulting from the conversion of dUMP to dTMP as previously described (2, 3).
The reaction conditions were optimized to determine the amount of TYMS protein needed to establish […]
reactions performed without TYMS or without the 5,10-methylene tetrahydrofolate (5,10-mTHF) cofactor (Supplemental Figure 2 and Supplemental methods). Reactions were performed in 50 mM KH2PO4 (Sigma Aldrich, Cat # P0662) at pH 7.2 using 2 µg of purified human TYMS. Reactions were performed in a final volume of 200 µL with 100 mM β-mercaptoethanol (Sigma Aldrich, Cat # M7522), 40 µM dUMP (Sigma Aldrich, Cat # D3876), 100 µM 5,10-mTHF, and the [5-3H]dUMP tracer (ViTrax, Cat # VT122) accounting for 0.06% of the final dUMP concentration in the reaction. The 5,10-mTHF used in the reaction was separately generated from tetrahydrofolic acid (Sigma Aldrich, Cat # T3125) by dissolving the solid in 10 mM KH2PO4 with 143 mM β-mercaptoethanol (1:100 from 14.3 M pure liquid), and 6.35 mM formaldehyde (Sigma Aldrich, Cat # 47608) to yield a 100 mM stock solution of 5,10- mTHF. Reactions were initiated by the addition of the dUMP substrate and 5,10-mTHF cofactor, then incubated at 37 °C for 30 minutes. […]
before the reaction was initiated by the addition of the dUMP substrate and 5,10-mTHF cofactor.
Reactions were terminated by the addition of 100 µL of ice-cold 20% trichloroacetic acid (Sigma Aldrich, Cat # T6399), then excess [5-3H]dUMP was removed by the addition of 200 µL of an albumin-coated activated charcoal solution. The albumin-coated activated charcoal solution was prepared by mixing 10 g of acid- washed activated dextran coated charcoal (Sigma Aldrich, Cat # C6241) with 2.5 g of bovine albumin (Sigma Aldrich, Cat # A1933) in 100 mL of H2O. The suspension was incubated at room temperature for 30 minutes and then centrifuged for 30 minutes at 10,000 x g. Then 150 µL of the supernatant was collected and added to 5 mL of ultima gold liquid scintillation cocktail (Perkin Elmer, Cat # 6013326, lot: 77-19085), and scintillation measurements were perform using a liquid scintillation counter (Beckman Coulter LS6500) to determine [3H]H2O levels in each sample. For all experiments, positive control reactions were performed with no drug representing 100% TYMS activity, and negative

[2] = molecular target: T2, DHFR (Homo sapiens, UniProt P00374); assay: Absorbance-based DHFR activity assay; type: biochemical; details: Figure 6D
T2 construct: purchased Sigma D6566 (kit CS0340)
T2 sequence (P00374 1-187): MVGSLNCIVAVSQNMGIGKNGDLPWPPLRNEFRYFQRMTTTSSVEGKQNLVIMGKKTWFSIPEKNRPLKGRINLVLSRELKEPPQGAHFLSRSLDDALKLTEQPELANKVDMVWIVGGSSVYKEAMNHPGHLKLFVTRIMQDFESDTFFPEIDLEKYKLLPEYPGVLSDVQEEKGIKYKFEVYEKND
Method: DHFR assay kit (Sigma Aldrich, Cat # CS0340) as described by the manufacturer. 0.1-unit DHFR
analogues or control drugs, 6 μL NADPH Cat # N6505 solution and 5 μl of dihydrofolic acid (DHFR
substrate) (Sigma, Cat # D7006). The reaction was then read on the spectrophotometer at 340 nm at
22 °C every 15 seconds for 2.5 minutes.

[3] = test system: MIA PaCa-2 cells; assay: MTS viability assay, MIA PaCa-2; type: cell-based; details: Homo sapiens, 72-hour drug treatment, Figure 6E, highest concentration 350 μM
Method: Cells were harvested after 72 hours, and cell pellets were stored at –80°C. […] After 72 hours, cell viability was assessed by reduction of MTS using Cell Titer 96 R Aqueous One Solution Cell Proliferation Assay Kit (Promega, catalog G8081), following manufacturer’s recommendations. […] was measured on a SpectraMax M3 (Molecular Devices). Data were plotted in GraphPad Prism 9 to determine GI50 concentration. Chemical synthesis details, including characterization of each compound, can be found in the Supplemental section associated with this publication.

[4] = test system: Luc-PANC-1 xenograft tumors; assay: Luc-PANC-1 subcutaneous xenograft tumor model; type: in vivo; details: 25 mg/kg PO, 4 cycles, Figure 9
From the text: In the subcutaneous tumor model, the resulting Luc-PANC-1 xenograft tumors were monitored by direct tumor measurements and bioluminescence photon flux that is proportional to tumor size. […] Treatment was initiated 30 days after Luc-PANC-1 cell line subcutaneous injections (5 × 10^6 cells), when tumors reached 100 mm^3 in volume, generating a bioluminescence photon flux of 3 × 10^9 to 4 × 10^9 photons/s. […] Tumors from both treatment groups were excised, and the tumor mass was weighed (Figure 2E).
Luc-PANC-1 (5 × 10^6) and Luc-CM (0.5 × 10^6) cells were resuspended in 200 μL of PBS and injected subcutaneously or IP, respectively, into 6- to 8-week-old NSG mice. Tumor-bearing mice were imaged using Xenogen IVIS Lumina Bioluminescence Imaging System (PerkinElmer) every week after cell injection. […] For all animals, body weight was recorded weekly, and Luc-PANC-1 tumor volume was measured weekly with a caliper. For scheduled sacrifice experiments, animals were euthanized after 4 weeks of treatment. […] Tumor volume was calculated as volume = 0.52(length × width^2).
Prior to bioluminescence imaging the region where tumors were located was shaved. […] Following the injection of the D-luciferin substrate mice, were imaged using the Xenogen IVIS Lumina Bioluminescence Imaging System (PerkinElmer). The peak of luciferase photon flux was recorded 6 minutes after injection of the D-luciferin substrate. The total photon flux was analyzed and restricted to tumor region of interest using Living Image v2.60.1 software (Imaging Systems).

[5] = in vivo; details: NSG, mouse, po
Method: Maximum tolerated dose (MTD)
experiment) or 5, 10, 25 or 50 mg/kg of 5-FU daily during 5 consecutive days. After 3 treatment cycles,
animals rested (no treatment) for one more week before euthanasia. Body weight and physical status
of all mice were closely monitored. Tissues were collected and fixed in alcoholic formalin to test for
daily during 5 consecutive days for 3 weeks. After 3 treatment cycles, animals rested (no treatment) for
one more week before euthanasia. Body weight and physical status of all mice were closely monitored.
Tissues were collected and fixed in alcoholic formalin to test for toxicity.
Specimens were fixed in alcoholic formalin for 48h and then transferred to 70% ethanol, processed and
embedded in paraffin. Tissues were serially sectioned and stained by conventional H&E. Slides were

T1 sequence (P04818 whole entry): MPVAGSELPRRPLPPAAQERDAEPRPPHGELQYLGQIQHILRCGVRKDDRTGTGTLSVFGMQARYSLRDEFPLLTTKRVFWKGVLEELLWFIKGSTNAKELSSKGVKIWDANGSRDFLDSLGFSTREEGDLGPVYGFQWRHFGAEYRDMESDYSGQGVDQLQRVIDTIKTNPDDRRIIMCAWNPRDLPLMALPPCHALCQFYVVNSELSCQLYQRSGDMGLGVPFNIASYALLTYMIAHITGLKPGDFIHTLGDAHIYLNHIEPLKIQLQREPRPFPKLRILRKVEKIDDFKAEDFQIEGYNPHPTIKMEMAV

Q: For CCc1nc(N)nc(N)c1-c1ccc(N(C)Cc2ccc3c(c2)OCO3)c([N+](=O)[O-])c1 [Compound 19-S7], which “TS activity, screen of 19-S series analogs” value ([1]; 250 μM, Figure 6A) is on record?
A: The value was “inhibited TYMS activity”.

Q: What about the “TS activity, comparison at decreasing drug concentrations” value ([1]; Figure 6C) of the same molecule?
A: Its value is “greater TYMS inhibition than both MTX and PEM”.

Q: And the “DHFR activity, comparison at reduced drug concentrations” value [2]?
A: Its value is “potent TYMS and DHFR inhibition”.

Q: And the GI50 [3]?
A: Its GI50 is 200 nM.

Q: And the Bioluminescence photon flux [4]?
A: The Bioluminescence photon flux was “reduced bioluminescence photon flux”.

Q: And the Body weight [4]?
A: Its Body weight is “did not show adverse effects on or declines in body weight”.

Q: And the “Final excised tumor mass” value [4]?
A: Its value is “reduced mass of the final excised tumors”.

Q: And the Tumor volume [4]?
A: The Tumor volume was “reduced and stable tumor volumes”.

Q: And the MTD at 3 weeks [5]?
A: The MTD at 3 weeks was 25 mg/kg.
